Entries after “also recorded” stand apart in the source; their conditions may differ.
Tests used:
[1] = tested on: APJ dimer (APJ-Rluc / APJ-EGFP); assay: BRET, effect of interference peptides on APJ homodimers; format: cell-based, human; settings: for effect on APJ dimer BRET signals / reduction of APJ dimer BRET signals: CHO cells, APJ-Rluc:APJ-EGFP 1:3, peptide 4 μM, 37 °C, four independent experiments in triplicate; for reduction of APJ dimer BRET signals: P < 0.01, one range for TMD1, 2, 3 and 4; for disruption of APJ (homo)dimerization (statement in words): interference peptides 4 μM, in vitro, by BRET and MS
Description: Figure 7 The effect of interference peptides on apelin receptor (APJ) dimers. […] BRET[1] was detected as described above.

APJ homodimer = assay: MALDI-TOF MS of immunoprecipitated APJ complex after treatment with HIV TAT-TMD interference peptides; format: binding, human; settings: peptide 4 μM, 60 min, 37 °C; for species detected by MALDI-TOF MS / effect of peptide on APJ homodimerization: cells transfected with APJ, anti-APJ immunoprecipitation, MALDI-TOF linear positive mode, mass range 4–10 kDa, sinapic acid; for binding to APJ (peptides encoding TMDs, MS): MALDI-TOF
Description: TMDs are important for the formation of head-to-head interfaces in class A GPCR dimers. To identify dimerization interfaces in the seven TMDs of APJ, the effects of cell-penetrating interference peptides (containing the sequence of the hydrophobic transmembrane helices) on APJ homodimerization were examined by MS.
Figure 5 The effects of interference peptides on apelin receptor (APJ) homodimerization as measured by matrix assisted laser desorption […] time-of-flight (MALDI-TOF) mass spectrometry.
The identity of the TMD peptide sequences was analyzed with liquid chromatography (LC)-MS.
MS was performed to identity APJ dimer interfaces in samples treated with TMD peptides. Cells were transfected with APJ and, 48 h later, treated with or without the indicated HIV TAT-TMD fused peptides (4 μM) for 60 min at 37 °C. Extracted proteins were immunoprecipitated using an anti-APJ antibody. Protein A/G PLUS-agarose beads were incubated with proteins for 2 h and washed four times with lysis buffer. The APJ complex was eluted from beads as described previously. Then, the endogenous APJ complex was analyzed with an AXIMA matrix-assisted laser desorption/ionization time-of-flight (MALDI-TOF) system (Shimazdu) in linear positive mode. The mass range was 4–10 kDa and the matrix was Sinapic Acid (SA), 10 mg/ml (50% acetonitrile (ACN), 50% H2O, 0.1% […] (TFA)). The results were calibrated with a Shimadzu MALDI calibration kit (Laser BioLabs).

[2] = tested on: APJ oligomers (APJ-Rluc, APJ-VN173, APJ-VC155); assay: BiFC-BRET, effect of agonist/antagonist treatment on APJ oligomerization; format: cell-based, human; settings: CHO cells co-expressing APJ-Rluc, concentration not given, four independent experiments in triplicate
Experimental: Additionally, BiFC-BRET assays were performed to detect APJ oligomerization in living cells. Two non-fluorescent fragments (pCE-BiFC-VN173 and pCE-BiFC-VC155) of Venus fluorescent protein were separately fused to APJ (APJ-VN173 and APJ-VC155) (Fig. 4A). CHO cells were then co-transfected with APJ-Rluc, APJ-VN173, and APJ-VC155 and observed with TIRFM.
Figure 4 Assessment of apelin receptor (APJ) oligomerization with bioluminescence resonance energy transfer - bimolecular fluorescence complementation (BiFC-BRET). (A) Principle of BiFC-BRET. The assay examines the formation of functional Venus by the complementation of protein fragments fused to APJ. Association of APJ enables formation of a bimolecular fluorescent complex. If all three tagged APJ proteins interact, BRET can occur. (B) TIRFM detection of APJ dimers (yellow particles) after BiFC. (C) Assessment of APJ oligomerization with BiFC-BRET. (D) Assessment of agonist-induced oligomerization.

[3] = tested on: APJ homodimers (APJ-Rluc / APJ-EGFP); assay: BRET, effect of agonist/antagonist treatment on APJ homodimerization; format: cell-based, human; settings: CHO cells co-expressing APJ-Rluc and APJ-EGFP (1:1); concentration not given; four independent experiments in triplicate
Experimental: We further assessed APJ interactions by co-immunoprecipitation (Co-IP), BRET[1], and Förster resonance energy transfer (FRET). […] BRET studies were performed to confirm APJ homodimerization.
Figure 2 Assessment of apelin receptor (APJ) dimerization using co-immunoprecipitation (Co-IP) and bioluminescence resonance energy transfer (BRET) assays. (A) Assessment of APJ homodimerization with Co-IP. Chinese hamster ovary (CHO) cells were either not transfected (mock) or transfected with HA-APJ, Myc-APJ, or both (co-transfection). HA-APJ and Myc-APJ were also mixed (mix). Immunoprecipitated samples were resolved by SDS-PAGE and immunoblotted with an anti-Myc antibody (upper panel). […] (B) Assessment of APJ homodimerization with BRET[1]. (C) BRET saturation curves. (D) Assessment of effects of agonist-treatment on dimerization by BRET[1]. For BRET, four independent experiments were performed with triplicate samples and the results were expressed as the mean ± SEM of four experiments ([…] versus control group; NS, not significant versus unstimulated cells).
(§1) To monitor constitutive APJ interactions, CHO cells were transfected with APJ-Rluc and APJ-EGFP plasmids at a ratio of 1:1, 1:2, 1:3, 1:4, 1:5, and 1:6 to express a constant amount of donor-labeled protein with increasing amounts of acceptor-labeled protein. At 24 h post-transfection, cells were trypsinized and plated on a 96 well microplate for 24 h in HEPES-buffered phenol red-free medium (Invitrogen, Life Technologies). Coelenterazine h (5 μM; Promega) was added for BRET measurements using a Tristar LB941 plate reader (Berthold) with an Rluc filter (400–475 nm) and a EGFP filter (500–550 nm). To monitor the induced interactions of APJ, BRET signals were measured as described above, with slight modifications. […] To measure the effects of interference peptides on APJ dimers, CHO cells were co-transfected with APJ-Rluc and APJ-EGFP (1:3) and incubated with interference peptides corresponding to TMD1, TMD2, TMD3, TMD4, TMD5, TMD6, and TMD7 at 37 °C (4 μM), and BRET[1] detected as described above.

APJ dimers = assay: BiFC-BRET, Gα-Rluc8, APJ-VN173 and APJ-VC155, G protein activation by APJ dimers; format: cell-based, human
Description: To explore the novel signaling of APJ dimers, we examined the signaling of APJ dimers using BiFC-BRET. […] Cells expressing Gα-Rluc8 and APJ-Venus served as a positive control, and two negative controls (Gα-Rluc8 and APJ-VN173, Gα-Rluc8 and APJ-VC155A) were also introduced. […] (Fig. S5). […] In addition, we have measured the expression levels of donor[23] and acceptor before experiment (Fig. 10).
Kinetics of ligand-induced BRET between Gα-Rluc8 (8 subtypes), APJ-VN173, and APJ-VC155. […] (A) Gαi1-Rluc8, APJ-VN173, and APJ-VC155; (B) Gαi2-Rluc8, APJ-VN173, and APJ-VC155; (C) Gαi3-Rluc8, APJ-VN173, and APJ-VC155; (D) Gαq-Rluc8, APJ-VN173, and APJ-VC155; (E) Gαs-Rluc8, APJ-VN173, and APJ-VC155; (F) Gαo-Rluc8, APJ-VN173, and APJ-VC155; (G) Gα12-Rluc8, APJ-VN173, and APJ-VC155; H. Gα13-Rluc8, APJ-VN173, and APJ-VC155.
APJ-VN173 and APJ-VC155 were generated by fusing either the N-terminal fragment of Venus (Venus N: amino acids 1–172) or the C-terminal fragment of Venus (Venus C: amino acids 156–239) to the C-terminus of the wild-type (wt) full-length apelin receptor. Gαi1-Rluc8, Gαi2-Rluc8, Gαi3-Rluc8, Gαq-Rluc8, Gαoa-Rluc8, and Gαs-Rluc8, pET-21a(+)-GFP, FLAG-BirA-APJ, and HA-AP-APJ were constructed as described previously.
as §1

[4] = APJ dimers (APJ-VN173 + APJ-VC155), CHO cells, 1 μM apelin-13, 30 min

Substance	effect on APJ dimer BRET signals [1]	reduction of APJ dimer BRET signals [1]	disruption of APJ (homo)dimerization (statement in words) [1]	species detected by MALDI-TOF MS / effect of peptide on APJ homodimerization (APJ homodimer)	binding to APJ (peptides encoding TMDs, MS) (APJ homodimer)	BRET signal versus unstimulated cells (APJ homodimer formation) [3]	also measured
YGRKKRRQRRRVSGAVATAVLWVLAALLAMPVMV [TMD4, HIV TAT-fused interference peptide derived from human APJ transmembrane domain 4]	significantly reduced APJ dimer BRET signals	55–75%	disrupted APJ dimerization; also recorded: can effectively disrupt the formation of APJ homodimers; also recorded: disrupted APJ homodimerization in vitro	TMD4, TMD4 dimers, TMD4 tetramers, APJ, [APJ + TMD4], APJ dimers, and [APJ + TMD4] dimers were detected	can bind to APJ	–	–
apelin-36: APJ agonist purchased from Phoenix Pharmaceuticals (LVQPRGSRNGPGPWQGGRRKFRRQRPRLSHKGPMPF; Apelin-36; UniProt Q9ULZ1 42-77, looked up)	–	–	–	–	–	not significantly different to those of unstimulated cells	BRET ratio versus unstimulated cells (APJ oligomerization, BiFC-BRET) [2]: the same as that of unstimulated cells
[Ala13]apelin-13	–	–	–	–	–	not significantly different to those of unstimulated cells	–
IFVNMYASVFCLTGLSFDRYLAIYGRKKRRQRRR [TMD3, HIV TAT-fused interference peptide derived from human APJ transmembrane domain 3]	significantly reduced APJ dimer BRET signals	55–75%	disrupted APJ dimerization; also recorded: can effectively disrupt the formation of APJ homodimers; also recorded: disrupted APJ homodimerization in vitro	TMD3, TMD3 dimers, TMD3 tetramers, APJ, [APJ + TMD3], APJ dimers, and [APJ + TMD3] dimers were detected	can bind to APJ	–	–
LMNIFPYCTCISYVNSCLNPFLYYGRKKRRQRRR [TMD7, HIV TAT-fused interference peptide derived from human APJ transmembrane domain 7]	no significant effect	–	but not TMD5, 6, and 7, disrupted APJ dimerization	lacked the effect demonstrated by TMD1, 2, 3, and 4; also recorded: TMD7, APJ, and APJ dimers were detected	–	–	–
YGRKKRRQRRRFIASLAVADLTFVVTLPLWATYT [TMD2, HIV TAT-fused interference peptide derived from human APJ transmembrane domain 2]	significantly reduced APJ dimer BRET signals	55–75%	disrupted APJ dimerization; also recorded: can effectively disrupt the formation of APJ homodimers; also recorded: disrupted APJ homodimerization in vitro	TMD2, TMD2 dimers, TMD2 tetramers, APJ, [APJ + TMD2], APJ dimers, and [APJ + TMD2] dimers were detected	can bind to APJ	–	–
YGRKKRRQRRRRLLSIIVVLVVTFALCWMPYHLV [TMD6, HIV TAT-fused interference peptide derived from human APJ transmembrane domain 6]	no significant effect	–	but not TMD5, 6, and 7, disrupted APJ dimerization	lacked the effect demonstrated by TMD1, 2, 3, and 4; also recorded: TMD6, APJ, and APJ dimers were detected	–	–	–
apelin-13	–	–	–	–	–	not significantly different to those of unstimulated cells	G protein activation, Gα12 (APJ dimers; [4]): not Gαi1, Gαi2, Gαs, Gα12, Gα13, and Gαo; G protein activation, Gα13 (APJ dimers; [4]): not Gαi1, Gαi2, Gαs, Gα12, Gα13, and Gαo; G protein activation, Gαi1 (APJ dimers; [4]): not Gαi1, Gαi2, Gαs, Gα12, Gα13, and Gαo; G protein activation, Gαi2 (APJ dimers; [4]): not Gαi1, Gαi2, Gαs, Gα12, Gα13, and Gαo; G protein activation, Gαi3 (APJ dimers; [4]): activate only Gαi3 and Gαq; G protein activation, Gαo (APJ dimers; [4]): not Gαi1, Gαi2, Gαs, Gα12, Gα13, and Gαo; G protein activation, Gαq (APJ dimers; [4]): activate only Gαi3 and Gαq; G protein activation, Gαs (APJ dimers; [4]): not Gαi1, Gαi2, Gαs, Gα12, Gα13, and Gαo; ligand-induced BRET change, cells expressing APJ tagged with VN173 and VC155 (APJ dimers; Gα-Rluc8 (8 subtypes), CHO cells, 1 μM apelin-13): an increase in BRET was observed only for Gαi3 and Gαq; ligand-induced BRET change, negative controls (APJ dimers; Gα-Rluc8 with APJ-VN173 only or APJ-VC155 only, 1 μM apelin-13): No changes in BRET were observed
VSSTTVGFVVPFTIMLTCYFFIAYGRKKRRQRRR [TMD5, HIV TAT-fused interference peptide derived from human APJ transmembrane domain 5]	no significant effect	–	but not TMD5, 6, and 7, disrupted APJ dimerization	lacked the effect demonstrated by TMD1, 2, 3, and 4; also recorded: TMD5, APJ, and APJ dimers were detected	–	–	–
